Patent US20240156733A1, “METHODS OF PREPARATION OF NOVEL PAN TLR ANTAGONISTIC LIPOSOMAL-LNP FORMULATIONS AND USES THEREOF” (Celestial Therapeutics Inc., priority 2022, published 2024)
“Also recorded” adds a separate entry of the source.

Columns and labels:
IL8 = experiment: Suppression of inflammation mediated by IL8 (data not shown)
From the text: (§1) The Journal of Biological Chemistry 294, 4282 […]; Numata, M. & Voelker, D. R. Anti-inflammatory and anti-viral actions of anionic pulmonary surfactant phospholipids. Biochimica et Biophysica Acta (BBA)—Molecular and CEll Biology of Lipids 1867, 159139 (2022) Mueller, M., Brandenburg, K., Dedrick, R., Schromm, A. B. & Seydel, U. Phospholipids Inhibit Lipopolysaccharide (LPS)-Induced Cell Activation: A Role for LPS-Binding Protein. The Journal of Immunology 174, 1091-1096 (2005); K, K. et al. Anionic pulmonary surfactact phospholipids inhibit inflammatory response from alveolar macrophages and U937 cells by binding the lipopolysaccharide-interacting proteins CD14 and MD-2. J Biol Chem 284, 25488-25500 (2009)]. MD-2 and CD14 are molecular components that are responsible for facilitating the downstream intracellular signaling of TLR4 mediated inflammation. POPG binding to MD-2 and CD-14 will disrupt the downstream TLR signaling and prevent the inflammatory response [Berger, M. de Boer, J. D, van der Poll, T., Sterk, P. J. & van der Zee, J. S. Local coagulation activation following bronchial instillation of house dust mite allergen (HDM) and HDM/Lipopolysaccharide (LPS) in mild asthmatics. European Respiratory Journal 40. (2012)].

MD-2 = molecular target: T1, MD-2 (Homo sapiens, UniProt Q9Y6Y9); conditions: prevents association with TLR-4; cited from earlier work
T1 sequence (Q9Y6Y9 19-160): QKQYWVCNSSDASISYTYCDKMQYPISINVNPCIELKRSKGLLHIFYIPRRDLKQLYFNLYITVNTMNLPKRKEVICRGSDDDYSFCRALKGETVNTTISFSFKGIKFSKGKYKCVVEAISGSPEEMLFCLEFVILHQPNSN

CD14 = molecular target: T2, CD14 (Homo sapiens, UniProt P08571); conditions: prevents association with TLR-4; cited from earlier work
T2 sequence (P08571 20-345): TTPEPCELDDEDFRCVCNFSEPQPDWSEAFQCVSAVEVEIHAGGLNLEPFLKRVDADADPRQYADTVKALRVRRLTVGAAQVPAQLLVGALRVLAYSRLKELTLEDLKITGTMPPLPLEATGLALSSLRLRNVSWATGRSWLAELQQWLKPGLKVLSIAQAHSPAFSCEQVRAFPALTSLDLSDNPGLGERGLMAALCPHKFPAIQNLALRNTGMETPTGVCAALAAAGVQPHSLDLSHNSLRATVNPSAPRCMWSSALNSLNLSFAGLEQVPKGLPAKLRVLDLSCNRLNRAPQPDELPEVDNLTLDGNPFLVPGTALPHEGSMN

[1] = test system: RAW264.7 murine macrophage cells; experiment: TNFα production with TLR agonists in RAW264.7 macrophages, POPG treatment; type: cell-based; conditions: TLR agonist stimulated RAW264.7 cells, after 24 h of POPG treatment, FIG. 1
From the text: as §1

CCCCCCCC/C=C\CCCCCCCC(=O)O[C@H](COC(=O)CCCCCCCCCCCCCCC)COP(=O)(O)OCC(O)CO (stereo partly shown) [POPG, palmitoyloleoylphosphatidylglycerol]
suppression of inflammation mediated by IL8 (IL8): suppression of inflammation
binding to MD-2 (MD-2): preferentially bind
binding to CD14 (CD14): preferentially bind
TNFα production [1]: reduces TNFα production; also recorded: suppression of inflammation mediated by TNFα
